Assay results reported in patent US11279733B2, “Peptide antibiotics” (priority 2017, dated 2022).
Read-outs that look alike come from different tables or passages of the source.

Key:
[1] = system: Neisseria gonorrhoeae; assay: MIC determination, Neisseria gonorrhoeae; format: cell-based
Method in brief: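 Mid-log cultures grown in Mueller Hinton broth at 37° C were tested by 2-fold broth microdilution at 5×10^5 CFU/mL final. Compounds were dissolved in water and tested over a final range of 32 to 0.015 μg/mL.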

[2] = system: HEK293 cells; assay: Cytotoxicity, resazurin assay, HEK293
Method in brief: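 Viability is measured by resazurin reduction (5 μM, 2 h, 37 °C) after cells seeded at 4000 per well are treated with compound for 24 h.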

[3] = system: Human kidney 2 (HK2) cells; assay: Cytotoxicity, HK2 LDH assay
Method in brief: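 HK2 cells were seeded at 2000 per well in DMEM/F12 with 10% FBS and left to attach for 24 h at 37 °C, 5% CO2. They were then exposed for 24 h to 3-fold peptide dilutions starting from 600 μM solutions in quadruplicate. LDH release was read at 450 nm, and CC50 was fitted from dose-response curves.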

polymyxin B sulfate [PolymyxinB, reference compound]
MIC N. gonorrhoeae F89 ([1]; strain F89): 9.38 µg/mL | MIC N. gonorrhoeae FA19 ATCC BAA-1838 ([1]; strain FA19 ATCC BAA-1838): 12.5 µg/mL | MIC N. gonorrhoeae FA1090 A25 ATCC 700825 ([1]; strain FA1090 A25 ATCC 700825): 10.42 µg/mL | MIC N. gonorrhoeae H041 ([1]; strain H041): 8.33 µg/mL | CC50 ([2]; read-out: HEK-293-CC50, HEK293, 24 h): > 300 µM | CC50 ([2]; read-out: HEK-293-CC50, HEK293 cells): > 300 µM | CC50 ([2]; read-out: HEK-293-CC50, Table 5, HEK293 cells): > 300 µM | CC50 ([2]; read-out: HEK-293-CC50, Table 6, HEK293 cells): > 300 µM | CC50 ([2]; read-out: HEK-293 CC50, HEK293 cells): > 300 µM | CC50 ([3]; read-out: HK2 (LDH) CC50, HK2 cells, LDH): 125 µM | CC50 ([3]; read-out: HK2 (LDH)-CC50, HK2, LDH, 24 h): 125 µM | CC50 ([3]; read-out: HK2 (LDH)-CC50, HK2 cells, LDH): 125 µM | CC50 ([3]; read-out: HK2 (LDH)-CC50, Table 5, HK2 cells, LDH): 125 µM | CC50 ([3]; read-out: HK2 (LDH)-CC50, Table 6, HK2 cells, LDH): 125 µM
